Source: US11840533B2, “Pyridinone-based epigenetic modifiers and uses thereof” (THE BOARD OF TRUSTEES OF THE UNIVERSITY OF ILLINOIS, priority 2017, dated 2023)
Blank lines part the entries; values can stand above or below the compound they belong to.

Experiments:
BRD4 bromodomain 1 = BRD4 bromodomain 1 (Homo sapiens (Human), UniProt O60885); assay: TR-FRET BRD4 binding assay, bromodomain 1; conditions: read-out: TR-FRET BRD4-BD1 Ki
Method: (§1) Briefly, compounds were serial diluted into the 1×TR-FRET Assay Buffer with no more than 8% DMSO, and the final concentration tested was distributed from […] to 10 uM with no more than 2% DMSO. (+)JQ-1 was used as positive control. […] Then the reconstituted BRD4 bromodomain ligand/APC Acceptor Mixture were added to every well and incubate for 1 hr at room temperature. The plate was sealed with adhesive aluminum seal to prevent photobleaching. Then the plate was read in time-resolved format by exiting the well at 340 nm and reading emmission at 620 and 670 nm, using 100 us delay and 500 us read window. Data analysis was performed using the TR-FRET ratio which is the 670 nm emission/620 nm emission.

BRD4 bromodomain 2 = BRD4 bromodomain 2 (Homo sapiens (Human), UniProt O60885); assay: TR-FRET BRD4 binding assay, bromodomain 2; conditions: read-out: TR-FRET BRD4-BD2 Ki
Method: as §1

[1] = test system: fulvestrant-resistant MCF7:5C-FR cells; assay: Fulvestrant-resistant breast cancer cell viability (cell proliferation) assay; format: cell-based; conditions: for IC50: growth inhibition in fulvestrant-resistant MCF-7:CFR cells, 120 hrs
Method in brief: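 Cells were treated the day after seeding with compounds at 3 nM to 10 uM for 120 h, with 0.1% DMSO vehicle and 1 uM JQ1 as positive control. Hoechst 33342-stained (5 μg/ml, 90 min, 37 C) nuclei were imaged and counted, and cell numbers normalized to vehicle.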

BRD2(2) = BRD2(2) (Homo sapiens (Human), UniProt P25440); assay: BROMOscan; format: binding
From the text: (§2) BROMOscan is a bromodomain inhibitor binding platform provided by DiscoverX that measures the interactions between compounds and a panel of bromodomain proteins.

TAF1(2) = TAF1(2) (Homo sapiens (Human), UniProt P21675); assay: BROMOscan; format: binding
Chain of TAF1(2) (P21675 1519-1628): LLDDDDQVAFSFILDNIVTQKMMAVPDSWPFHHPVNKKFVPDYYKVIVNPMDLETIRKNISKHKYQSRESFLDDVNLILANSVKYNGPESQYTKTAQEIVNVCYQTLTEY
From the text: as §2

BRD3(1) = BRD3(1) (Homo sapiens (Human), UniProt Q15059); assay: BROMOscan; format: binding
From the text: as §2

BRD3(2) = BRD3(2) (Homo sapiens (Human), UniProt Q15059); assay: BROMOscan; format: binding
Chain of BRD3(2) (Q15059 306-415): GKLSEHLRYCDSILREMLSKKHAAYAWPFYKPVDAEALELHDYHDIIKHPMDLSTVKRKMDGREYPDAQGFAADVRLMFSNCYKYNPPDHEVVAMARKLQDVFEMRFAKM
From the text: as §2

BRDT(2) = BRDT(2) (Homo sapiens (Human), UniProt Q58F21); assay: BROMOscan; format: binding
From the text: as §2

BRD1 = BRD1 (Homo sapiens (Human), UniProt O95696); assay: BROMOscan; format: binding
From the text: as §2

BRDT(1, 2) = BRDT(1, 2) (Homo sapiens (Human), UniProt Q58F21); assay: BROMOscan; format: binding
From the text: as §2

TRIM24(Bromo.) = TRIM24(Bromo.) (Homo sapiens (Human), UniProt O15164); assay: BROMOscan; format: binding
From the text: as §2

PBRM1(5) = PBRM1(5) (Homo sapiens (Human), UniProt Q86U86); assay: BROMOscan; format: binding
Chain of PBRM1(5) (Q86U86 653-763): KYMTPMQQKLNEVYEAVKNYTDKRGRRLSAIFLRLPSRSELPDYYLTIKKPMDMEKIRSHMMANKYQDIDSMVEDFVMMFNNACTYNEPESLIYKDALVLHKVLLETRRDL
From the text: as §2

BRD9 = BRD9 (Homo sapiens (Human), UniProt Q9H8M2); assay: BROMOscan; format: binding
Chain of BRD9 (Q9H8M2 whole entry): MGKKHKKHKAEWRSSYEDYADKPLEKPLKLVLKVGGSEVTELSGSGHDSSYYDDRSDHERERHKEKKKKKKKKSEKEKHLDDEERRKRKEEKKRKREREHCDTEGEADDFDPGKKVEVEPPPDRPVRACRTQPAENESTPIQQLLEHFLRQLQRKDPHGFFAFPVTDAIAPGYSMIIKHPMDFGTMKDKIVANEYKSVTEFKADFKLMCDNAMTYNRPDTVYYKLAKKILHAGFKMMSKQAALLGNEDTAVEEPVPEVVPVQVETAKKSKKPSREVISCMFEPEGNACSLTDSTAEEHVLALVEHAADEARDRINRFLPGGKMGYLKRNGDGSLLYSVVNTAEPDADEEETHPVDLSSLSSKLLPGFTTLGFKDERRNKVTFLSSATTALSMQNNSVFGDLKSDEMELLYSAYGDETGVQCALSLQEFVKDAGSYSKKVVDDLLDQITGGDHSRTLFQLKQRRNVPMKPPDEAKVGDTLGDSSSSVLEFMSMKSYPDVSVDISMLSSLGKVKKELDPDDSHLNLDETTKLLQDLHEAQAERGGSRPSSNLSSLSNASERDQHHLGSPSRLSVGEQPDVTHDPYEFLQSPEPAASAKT
From the text: as §2

CECR2 = CECR2 (Homo sapiens (Human), UniProt Q9BXF3); assay: BROMOscan; format: binding
Chain of CECR2 (Q9BXF3 whole entry): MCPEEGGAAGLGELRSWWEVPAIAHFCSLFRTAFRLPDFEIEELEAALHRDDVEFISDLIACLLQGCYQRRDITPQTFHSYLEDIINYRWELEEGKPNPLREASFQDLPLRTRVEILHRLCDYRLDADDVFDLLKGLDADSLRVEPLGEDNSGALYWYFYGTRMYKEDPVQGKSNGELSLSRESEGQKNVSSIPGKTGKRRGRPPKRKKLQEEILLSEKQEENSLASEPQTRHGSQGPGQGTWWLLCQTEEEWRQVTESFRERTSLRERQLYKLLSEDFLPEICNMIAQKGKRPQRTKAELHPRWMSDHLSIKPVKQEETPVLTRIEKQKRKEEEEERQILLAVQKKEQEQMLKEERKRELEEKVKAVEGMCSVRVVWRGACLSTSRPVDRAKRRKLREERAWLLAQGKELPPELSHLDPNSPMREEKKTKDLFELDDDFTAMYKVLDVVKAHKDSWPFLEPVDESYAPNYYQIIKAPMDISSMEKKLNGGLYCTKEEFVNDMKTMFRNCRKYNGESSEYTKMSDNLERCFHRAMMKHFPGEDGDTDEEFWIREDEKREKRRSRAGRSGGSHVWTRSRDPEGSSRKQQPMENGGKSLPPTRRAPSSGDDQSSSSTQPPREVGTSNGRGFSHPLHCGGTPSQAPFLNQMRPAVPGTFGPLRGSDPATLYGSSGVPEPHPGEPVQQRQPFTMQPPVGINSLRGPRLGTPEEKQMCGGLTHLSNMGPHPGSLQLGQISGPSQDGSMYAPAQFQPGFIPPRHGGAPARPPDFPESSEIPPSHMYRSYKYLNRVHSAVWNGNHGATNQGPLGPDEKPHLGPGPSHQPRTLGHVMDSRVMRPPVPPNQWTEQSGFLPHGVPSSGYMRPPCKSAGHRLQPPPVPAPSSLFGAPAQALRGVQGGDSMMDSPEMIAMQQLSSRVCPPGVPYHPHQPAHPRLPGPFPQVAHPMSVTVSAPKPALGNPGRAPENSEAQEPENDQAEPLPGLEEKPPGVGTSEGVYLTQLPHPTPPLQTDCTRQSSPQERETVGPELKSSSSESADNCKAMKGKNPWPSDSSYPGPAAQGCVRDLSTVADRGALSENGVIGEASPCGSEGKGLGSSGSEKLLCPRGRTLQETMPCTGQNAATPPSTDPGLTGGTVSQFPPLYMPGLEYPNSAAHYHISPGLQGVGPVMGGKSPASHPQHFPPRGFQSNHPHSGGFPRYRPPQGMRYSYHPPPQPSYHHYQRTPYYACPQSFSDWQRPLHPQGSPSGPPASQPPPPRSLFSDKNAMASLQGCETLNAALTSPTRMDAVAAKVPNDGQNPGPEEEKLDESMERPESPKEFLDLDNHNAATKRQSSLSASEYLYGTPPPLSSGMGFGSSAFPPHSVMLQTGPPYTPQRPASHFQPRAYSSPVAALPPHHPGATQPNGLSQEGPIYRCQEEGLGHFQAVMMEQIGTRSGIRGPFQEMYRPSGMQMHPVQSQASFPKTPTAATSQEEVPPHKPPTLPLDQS
From the text: as §2

TAF1L(2) = TAF1L(2) (Homo sapiens (Human), UniProt Q8IZX4); assay: BROMOscan; format: binding
Chain of TAF1L(2) (Q8IZX4 1517-1626): as the sequence (P21675 1519-1628) above, with V46M, M51V, V102I, L107I counted along it
From the text: as §2

BRD2(1, 2) = BRD2(1, 2) (Homo sapiens (Human), UniProt P25440); assay: BROMOscan; format: binding
From the text: as §2

BRD8(1) = BRD8(1) (Homo sapiens (Human), UniProt Q9H0E9); assay: BROMOscan; format: binding
Chain of BRD8(1) (Q9H0E9 706-811): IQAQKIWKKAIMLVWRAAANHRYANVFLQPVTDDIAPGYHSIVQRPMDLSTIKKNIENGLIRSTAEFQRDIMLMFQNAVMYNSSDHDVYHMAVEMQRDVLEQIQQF
From the text: as §2

EP300 = EP300 (Homo sapiens (Human), UniProt Q09472); assay: BROMOscan; format: binding
Chain of EP300 (Q09472 whole entry): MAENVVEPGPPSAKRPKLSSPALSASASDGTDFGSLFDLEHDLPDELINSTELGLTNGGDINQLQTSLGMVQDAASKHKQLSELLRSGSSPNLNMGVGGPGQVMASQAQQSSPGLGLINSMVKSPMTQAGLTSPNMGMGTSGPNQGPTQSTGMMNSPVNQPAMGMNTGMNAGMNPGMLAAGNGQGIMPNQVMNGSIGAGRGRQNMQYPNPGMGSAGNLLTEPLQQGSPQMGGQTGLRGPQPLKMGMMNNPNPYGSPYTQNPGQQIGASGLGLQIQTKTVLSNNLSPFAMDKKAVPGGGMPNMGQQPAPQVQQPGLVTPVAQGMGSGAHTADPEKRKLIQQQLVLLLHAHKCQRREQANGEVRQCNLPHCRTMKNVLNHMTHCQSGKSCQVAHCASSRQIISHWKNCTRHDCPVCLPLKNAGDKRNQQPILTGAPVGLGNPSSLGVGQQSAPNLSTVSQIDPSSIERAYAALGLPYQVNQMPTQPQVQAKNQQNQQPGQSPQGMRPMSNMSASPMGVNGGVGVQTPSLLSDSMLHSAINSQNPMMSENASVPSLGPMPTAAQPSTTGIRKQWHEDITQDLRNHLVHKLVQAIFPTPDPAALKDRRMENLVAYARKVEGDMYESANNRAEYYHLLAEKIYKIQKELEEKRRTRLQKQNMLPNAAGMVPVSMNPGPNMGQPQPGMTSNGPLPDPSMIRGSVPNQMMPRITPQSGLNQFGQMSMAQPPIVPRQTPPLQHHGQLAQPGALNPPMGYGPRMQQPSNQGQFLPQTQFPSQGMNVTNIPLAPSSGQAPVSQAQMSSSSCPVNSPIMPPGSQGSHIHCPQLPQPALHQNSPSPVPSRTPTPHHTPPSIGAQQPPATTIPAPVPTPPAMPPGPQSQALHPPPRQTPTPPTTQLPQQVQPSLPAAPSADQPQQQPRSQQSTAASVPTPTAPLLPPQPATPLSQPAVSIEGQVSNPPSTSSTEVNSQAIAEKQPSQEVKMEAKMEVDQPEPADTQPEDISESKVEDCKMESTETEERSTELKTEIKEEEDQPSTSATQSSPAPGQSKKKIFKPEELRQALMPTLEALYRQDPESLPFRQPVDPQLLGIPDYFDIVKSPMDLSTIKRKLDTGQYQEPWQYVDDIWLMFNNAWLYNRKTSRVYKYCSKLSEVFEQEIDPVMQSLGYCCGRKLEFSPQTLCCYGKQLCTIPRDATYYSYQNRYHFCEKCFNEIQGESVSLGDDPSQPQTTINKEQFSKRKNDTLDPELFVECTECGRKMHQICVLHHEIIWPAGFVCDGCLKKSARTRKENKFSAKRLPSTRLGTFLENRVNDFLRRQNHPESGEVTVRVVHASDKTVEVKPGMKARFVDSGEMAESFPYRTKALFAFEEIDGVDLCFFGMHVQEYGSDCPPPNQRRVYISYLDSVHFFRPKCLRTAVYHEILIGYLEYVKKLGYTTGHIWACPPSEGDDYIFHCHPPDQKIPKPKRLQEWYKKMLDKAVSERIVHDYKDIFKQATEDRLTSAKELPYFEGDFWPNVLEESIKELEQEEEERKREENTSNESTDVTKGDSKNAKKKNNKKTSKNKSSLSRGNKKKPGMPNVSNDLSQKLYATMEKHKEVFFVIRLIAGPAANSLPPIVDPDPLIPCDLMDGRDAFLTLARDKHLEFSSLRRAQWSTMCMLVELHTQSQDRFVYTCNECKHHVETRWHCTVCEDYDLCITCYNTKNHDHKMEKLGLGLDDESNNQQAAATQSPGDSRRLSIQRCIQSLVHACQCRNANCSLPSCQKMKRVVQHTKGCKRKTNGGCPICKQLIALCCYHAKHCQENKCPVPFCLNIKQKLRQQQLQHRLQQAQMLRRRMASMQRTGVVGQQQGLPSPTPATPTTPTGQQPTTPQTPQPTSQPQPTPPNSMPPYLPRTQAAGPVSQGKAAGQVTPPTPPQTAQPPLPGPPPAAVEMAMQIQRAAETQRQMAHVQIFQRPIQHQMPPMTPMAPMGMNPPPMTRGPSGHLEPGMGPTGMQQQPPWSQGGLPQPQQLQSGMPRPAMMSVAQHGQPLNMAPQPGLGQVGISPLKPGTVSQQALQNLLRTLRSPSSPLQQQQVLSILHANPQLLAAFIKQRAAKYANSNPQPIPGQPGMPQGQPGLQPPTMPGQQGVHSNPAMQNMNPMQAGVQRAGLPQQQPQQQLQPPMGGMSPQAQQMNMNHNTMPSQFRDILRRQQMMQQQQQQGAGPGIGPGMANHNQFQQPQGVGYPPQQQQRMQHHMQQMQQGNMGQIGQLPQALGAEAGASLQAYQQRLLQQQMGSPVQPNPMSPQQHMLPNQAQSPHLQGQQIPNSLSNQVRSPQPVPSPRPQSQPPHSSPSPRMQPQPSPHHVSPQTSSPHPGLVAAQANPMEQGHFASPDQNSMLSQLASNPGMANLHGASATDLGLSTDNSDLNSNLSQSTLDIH
From the text: as §2

BRD2(1) = BRD2(1) (Homo sapiens (Human), UniProt P25440); assay: BROMOscan; format: binding
From the text: as §2

BAZ2A = BAZ2A (Homo sapiens (Human), UniProt Q9UIF9); assay: BROMOscan; format: binding
From the text: as §2

BRDT(1) = BRDT(1) (Homo sapiens (Human), UniProt Q58F21); assay: BROMOscan; format: binding
From the text: as §2

BRD3(1, 2) = BRD3(1, 2) (Homo sapiens (Human), UniProt Q15059); assay: BROMOscan; format: binding
From the text: as §2

CREBBP = CREBBP (Homo sapiens (Human), UniProt Q92793); assay: BROMOscan; format: binding
From the text: as §2

BRPF1 = BRPF1 (Homo sapiens (Human), UniProt P55201); assay: BROMOscan; format: binding
From the text: as §2

BET family proteins = assay: BROMOscan panel of bromodomain proteins; format: binding; conditions: FIG. 6
From the text: as §2

[2] = test system: 3D spheroids of fulvestrant-resistant MCF-7:CFR; assay: Growth of 3D spheroids of fulvestrant-resistant MCF-7:CFR; format: cell-based; conditions: FIG. 11; vs JQ1 and AZD-5153

Compound: CCC(c1ccccn1)(c1ccccn1)n1c(-c2cn(C)c3c(O)nccc23)nc2c(NS(=O)(=O)CC)cccc21 [Compound 127, N-(1-(1,1-di(pyridin-2-yl)propyl)-2-(7-hydroxy-1-methyl-1H-pyrrolo[2,3-c]pyridin-3-yl)-1H-benzo[d]imidazol-4-yl)ethanesulfonamide]
IC50 ([1]; 120 h): < 1000 nM

Compound: Cn1cc(-c2cc(S(C)(=O)=O)c3ccn(C(C)(c4ccccn4)c4ccccn4)c3c2)c2cc[nH]c(=O)c21 [Compound 128, 3-(1-(1,1-di(pyridin-2-yl)ethyl)-4-(methylsulfonyl)-1H-indol-6-yl)-1-methyl-1,6-dihydro-7H-pyrrolo[2,3-c]pyridin-7-one]
IC50 ([1]; 120 h): < 1000 nM

Compound: CCS(=O)(=O)c1cc(-c2cn(C)c3c(=O)[nH]ccc23)cc2c1ccn2C(C)(c1ccccn1)c1ccccn1 [Compound 129, 3-(1-(1,1-di(pyridin-2-yl)ethyl)-4-(ethylsulfonyl)-1H-indol-6-yl)-1-methyl-1,6-dihydro-7H-pyrrolo[2,3-c]pyridin-7-one]
IC50 ([1]; 120 h): < 1000 nM

Compound: CC(C)C(=O)Nc1cc(-c2cn(C)c3c(=O)[nH]ccc23)cc2c1ccn2C(C)(c1ccccn1)c1ccccn1 [Compound 131, N-(1-(1,1-di(pyridin-2-yl)ethyl)-6-(1-methyl-7-oxo-6,7-dihydro-1H-pyrrolo[2,3-c]pyridin-3-yl)-1H-indol-4-yl)isobutyramide]
IC50 ([1]; 120 h): < 100 nM

Compound: N-(1-benzhydryl-6-(1-methyl-7-oxo-6,7-dihydro-1H-pyrrolo[2,3-c]pyridin-3-yl)-1H-indol-4-yl)ethanesulfonamide [Compound 130]
IC50 [1]: < 100 nM

More lines, main results first:

Ki (BRD4 bromodomain 1): < 100 nM
Ki (BRD4 bromodomain 2): < 100 nM
IC50 ([1]; 120 h): 17 nM
Compound: Cn1cc(-c2cc(NS(C)(=O)=O)c3ccn(Cc4ccc(F)cc4)c3c2)c2ccnc(O)c21 [Compound 23, N-(1-(4-fluorobenzyl)-6-(7-hydroxy-1-methyl-1H-pyrrolo[2,3-c]pyridin-3-yl)-1-indol-4-yl)methanesulfonamide]

Ki (BRD4 bromodomain 1): < 100 nM
Ki (BRD4 bromodomain 2): < 100 nM
IC50 ([1]; 120 h): 40 nM
Compound: Cn1cc(-c2cc(NS(C)(=O)=O)c3cnn(Cc4ccc(F)cc4)c3c2)c2ccnc(O)c21 [Compound 30, N-(1-(4-fluorobenzyl)-6-(7-hydroxy-1-methyl-1H-pyrrolo[2,3-c]pyridin-3-yl)-1H-indazol-4-yl)methanesulfonamide]

Ki (BRD4 bromodomain 1): < 100 nM
Ki (BRD4 bromodomain 2): < 100 nM
IC50 ([1]; 120 h): 15 nM
Compound: CCS(=O)(=O)Nc1cc(-c2cn(C)c3c(O)nccc23)cc2c1cnn2Cc1ccc(F)cc1 [Compound 31, N-(1-(4-fluorobenzyl)-6-(7-hydroxy-1-methyl-1H-pyrrolo[2,3-c]pyridin-3-yl)-1H-indazol-4-yl)ethanesulfonamide]

Kd (BRD2(2)): 0.77 nM
Kd (TAF1(2)): 9.1 nM
Kd (BRD3(1)): 0.34 nM
Kd (BRD3(2)): 0.61 nM
Kd (BRDT(2)): 1.4 nM
Kd (BRD1): 7700 nM
Kd (BRDT(1, 2)): 0.23 nM
Kd (TRIM24(Bromo.)): 4400 nM
Kd (PBRM1(5)): 6100 nM
Kd (BRD9): 3500 nM
Kd (CECR2): 6000 nM
Kd (TAF1L(2)): 44 nM
Kd (BRD2(1, 2)): 0.57 nM
Kd (BRD8(1)): 4900 nM
Kd (EP300): 37 nM
Kd (BRD2(1)): 0.27 nM
Kd (BAZ2A): 3500 nM
Kd (BRDT(1)): 0.14 nM
Kd (BRD3(1, 2)): 0.27 nM
Kd (CREBBP): 110 nM
Kd (BRPF1): 360 nM
IC50 ([1]; 120 h): 0.9 nM
binding affinity for BET family (BET family proteins): subnanomolar potency
Compound: CCS(=O)(=O)Nc1cc(-c2cn(C)c3c(=O)[nH]ccc23)cc2c1ccn2C(C)(c1ccccn1)c1ccccn1 [Compound 70]
growth inhibition in comparison with clinical benchmark BET inhibitors ([1]; FIG. 10, vs BMS-98615, ABBV-075, AVR-771, AZD-5153, I-BET-762 and JQ1): superior potency
efficacy in inhibiting the growth of 3D spheroids [2]: more efficacious than JQ1 and AZD-5153

Ki (BRD4 bromodomain 1): < 10 nM
Ki (BRD4 bromodomain 2): < 10 nM
IC50 ([1]; 120 h): 10 nM
Compound: CC(=O)Nc1cc(-c2cn(C)c3c(=O)[nH]ccc23)cc2c1ccn2C(C)(c1ccccn1)c1ccccn1 [Compound 71, N-(1-(1,1-di(pyridin-2-yl)ethyl)-6-(1-methyl-7-oxo-6,7-dihydro-1H-pyrrolo[2,3-c]pyridin-3-yl)-1H-indol-4-yl)acetamide]

Ki (BRD4 bromodomain 1): < 10 nM
Ki (BRD4 bromodomain 2): < 10 nM
IC50 ([1]; 120 h): 20 nM
Compound: Cn1cc(-c2cc(C(C)(C)O)c3ccn(C(C)(c4ccccn4)c4ccccn4)c3c2)c2cc[nH]c(=O)c21 [Compound 72, 3-(1-(1,1-di(pyridin-2-yl)ethyl)-4-(2-hydroxypropan-2-yl)-1H-indol-6-yl)-1-methyl-1H-pyrrolo[2,3-c]pyridin-7(6H)-one]

IC50 ([1]; 120 h): < 10 nM
Compound: CCC(c1ccccn1)(c1ccccn1)n1ccc2c(NS(=O)(=O)CC)cc(-c3cn(C)c4c(=O)[nH]ccc34)cc21 [Compound 126, N-(1-(1,1-di(pyridin-2-yl)propyl)-6-(1-methyl-7-oxo-6,7-dihydro-1H-pyrrolo[2,3-c]pyridin-3-yl)-1H-indol-4-yl)ethanesulfonamide]

IC50 ([1]; 120 h): 13 nM
Compound: Cn1cc(-c2cc(NS(C)(=O)=O)c3ccn(C(C)(c4ccccn4)c4ccccn4)c3c2)c2cc[nH]c(=O)c21 [Compound 132, N-(1-(1,1-di(pyridin-2-yl)ethyl)-6-(1-methyl-7-oxo-6,7-dihydro-1H-pyrrolo[2,3-c]pyridin-3-yl)-1H-indol-4-yl)methanesulfonamide]
